Source: paper PMC10946790, “A Functional Chemiluminescent Probe for in Vivo Imaging of Natural Killer Cell Activity Against Tumours” (Angewandte Chemie (Weinheim an Der Bergstrasse, Germany), 2021)
Where a SMILES comes first, the peptide text is derived from it. The star is where a group is joined. AMC = Cc1cc(=O)oc2cc(N*)ccc12

Target: T1, hr‐granzyme B (Homo sapiens, UniProt P10144)
T1 construct: in the absence and presence of active human recombinant (hr)‐granzyme B
Test: Time-course signal-to-noise ratios after reaction with granzyme B
Type: biochemical
Conditions: probe 25 μM, hr-granzyme B 20 nM, aqueous buffer, 37 °C, over 30 minutes; mean ± SEM, n=6
Procedure: In vitro characterisation assays. Enzymatic assays were run in a 384-well format in a PCR opaque microplate (Thermo Scientific). All experiments were performed at least in triplicate. Dilutions and reactions using human GZM B and human neutrophil elastase were prepared in 50 mM Tris-HCl and 100 mM NaCl (pH 7.4). GZM A assays were performed in 25 mM HEPES, 0.1% CHAPS and 10 mM DTT (pH 7.5). Dilutions and incubations with CASP8 and CASP9 were prepared in 50 mM HEPES, 100 mM NaCl, 0.1% Triton X-100, 10 mM DTT, 1 mM EDTA and 10% glycerol (pH 7.4). Any other tested biomolecules were prepared in PBS. Proteolytic activity was determined by calculating the fold change in chemiluminescence signal (or fluorescence signal in the case of Ac - IEPD-AMC) over background signal provided by the corresponding dilution of the probes with the enzyme using a spectrophotometer (Synergy H1 Hybrid Reader, BioTek) at 37°C.
Unless otherwise stated, probes were utilized at a concentration of 100 μM. Enzyme concentration used: 20 nM (except CASP9, which was used at 200 nM) and all other biomolecules were tested at 100 μM. In the case where an inhibitor was used, the enzyme was pre-incubated for 1 h with the inhibitor (100 µM) before addition of probe 1.
Cell culture. […]

T1 sequence (P10144 21-247): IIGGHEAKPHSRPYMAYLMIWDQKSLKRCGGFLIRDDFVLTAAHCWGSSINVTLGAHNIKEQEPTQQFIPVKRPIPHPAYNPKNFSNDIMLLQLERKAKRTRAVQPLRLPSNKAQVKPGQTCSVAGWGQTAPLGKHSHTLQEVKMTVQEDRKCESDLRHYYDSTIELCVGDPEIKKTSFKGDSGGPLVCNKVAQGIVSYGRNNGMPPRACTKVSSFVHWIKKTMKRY

Signal‐to‐noise (S/N) ratio, fluorescence: under 5
Structure (SMILES): CC[C@H](C)[C@H](NC(C)=O)C(=O)N[C@@H](CCC(=O)O)C(=O)N1CCC[C@H]1C(=O)N[C@@H](CC(=O)O)C(=O)Nc1ccc2c(C)cc(=O)oc2c1 [Ac‐IEPD‐AMC] (Ac-IEPD-{AMC})
